In patent US7482367B2, “Substituted benzimidazoles and methods of their use” (Novartis Vaccines and Diagnostics, Inc., priority 2005, dated 2009):
Read-outs that look alike come from different tables or passages of the source.

Key:
HT-29 (cell line) = assay: cells; details: Homo sapiens, HT-29, 168 h
human tumor isolate #5 [1] = details: Colorectal tumor, K-Ras
[2] = assay type: in vivo, mice; details: at target plasma concentration, corrected for protein binding
[3] = tested on: SKMEL-28 (mutant B-Raf V600E); assay: cells; details: Homo sapiens, SK-MEL-28, read-out: pERK inhibition EC50
human tumor isolate #1 = assay: cells
[4] = assay type: in vivo, Nu/Nu mice; details: for Mean body weight loss on day 28: 100 mg/kg per dose
Procedure: Therefore, the most efficacious dosage of 100 mg/kg was further evaluated as described below.

human tumor isolate #2 = assay: cells
Colo205 (cell line) = assay: cells; details: Homo sapiens, COLO 205, 168 h
human tumor isolated #7 = assay: tissue or blood
human tumor isolate #4 [5] = details: Pancreatic tumor, K-Ras
WM1799 (cell line) = assay: cells; details: WM-1799, 168 h
human tumor isolate #4 [6] = assay: cells; details: Pancreatic tumor, K-Ras
human tumor isolate #3 = assay: cells
[7] = tested on: SKMEL-2 (wild-type Raf, mutant N-Ras); details: SKMEL-2 cells; 0.1 μM to 10 μM; 4 hours of incubation
Plasma protein binding = assay type: in vitro ADME
[8] = tested on: CHL-1 (wild-type Raf, wild-type Ras); details: CHL-1 cells; 0.1 μM to 10 μM; 4 hours of incubation
human tumor isolate #5 [9] = assay: cells; details: Colorectal tumor, K-Ras
[10] = tested on: HT-29 (B-Raf V600E) colorectal carcinoma tumors; details: HT29, q2 d × 14, oral
human tumor isolate #6 = assay: cells

EC50 (HT-29 (cell line)): 0.026 µM
EC50 (human tumor isolate #5 [1]): 1.2 µM
rough estimation of free drug concentration [2]: approximately 0.135 μM
EC50 [3]: 0.1 µM
EC50 (human tumor isolate #1): 0.055 µM
average loss of starting body weight by day 14 ([4]; daily dosing, 30 mg/kg and 100 mg/kg dose levels): 10%
EC50 (human tumor isolate #2): 0.2 µM
EC50 (Colo205 (cell line)): 0.13 µM
EC50 (human tumor isolated #7): > 1 µM
EC50 (human tumor isolate #4 [5]): 1.27 µM
EC50 (WM1799 (cell line)): < 0.0098 µM
EC50 (human tumor isolate #4 [6]): ~1 µM
EC50 (human tumor isolate #3): 0.57 µM
protein bound in plasma (Plasma protein binding): greater than 99.9%
EC50 (human tumor isolate #5 [9]): ~1 µM
EC50 (human tumor isolate #6): > 1 µM
SMILES: Cn1c(Nc2ccc(C(F)(F)F)cc2)nc2cc(Oc3ccnc(-c4ncc(C(F)(F)F)[nH]4)c3)ccc21 [Example 1, {1-Methyl-5-[2-(5-trifluoromethyl-1H-imidazol-2-yl)-pyridin-4-yloxy]-1H-benzoimidazol-2-yl}-(4-trifluoromethyl-phenyl)-amine]
Mean body weight loss on day 28 ([4]; q2 d): 12%
Mean body weight loss on day 28 ([4]; q3 d): 8%
Mean body weight loss on day 28 ([4]; q4 d): 7%
inhibition of Raf downstream signaling (MEK phosphorylation) [7]: potent inhibitor of Raf downstream signaling
inhibition of Raf downstream signaling (MEK phosphorylation) [8]: potent inhibitor of Raf downstream signaling
TGI/Regression ([10]; 10 mg/kg): 12% TGI
TGI/Regression ([10]; 100 mg/kg): tumor regression
